Values quoted from earlier work as cited in patent US20060084635A1, “Aspirin and vitamin and/or trace element compositions for the amelioration and treatment of vascular disease” (priority 1993, published 2006).
Entries after “also recorded” stand apart in the source; their conditions may differ. Read-outs that look alike come from different tables or passages of the source.

Legend:
vascular tissue = system: vascular tissue; parameters: key: + Beneficial; 0 No Effect; − Detrimental
atherosclerotic lesions = conditions: animals fed an atherogenic diet
[1] = system: immune-triggered endothelial damage
[2] = system: serum cholesterol and triglycerides; conditions: for blood serum levels of cholesterol and triglycerides: in vivo
[3] = system: retirement community residents; conditions: for All Deaths RR / Ischemic Heart Disease RR / Myocardial Infarction RR / Other Heart Disease RR / Stroke RR / Total Cardiovascular Deaths RR: relative risk vs Aspirin− Vitamin−
[4] = system: vascular lesions in branches of the aorta and cerebral arteries; conditions: rats; diet containing seven times the level of zinc required for normal growth
[5] = in sufficient amounts
[6] = system: prostaglandins in the vascular wall and platelets
[7] = system: vascular wall wound healing; conditions: rat, in vivo

## [Cu] [Copper]
Vascular tissue; Table 2
  Anti-Aggregant: 0
  Decreased Formation of Clots: 0
  Decreased Immune-Induced Lesions: +
  Decreased Peroxidation: 0
  Decreases Serum Cholesterol: +
  Inhibition of Cholesterol Migration: 0
  Platelet Activity: 0
  Prostaglandin Synthesis: 0
  Speeding of Wound Healing: +

## [Se] [Selenium]
Vascular tissue; Table 2
  Anti-Aggregant: +
  Decreased Formation of Clots: 0
  Decreased Immune-Induced Lesions: +
  Decreased Peroxidation: +
  Decreases Serum Cholesterol: +
  Inhibition of Cholesterol Migration: 0
  Platelet Activity: +
  Prostaglandin Synthesis: +
  Speeding of Wound Healing: 0

## Vitamin E
Atherosclerotic lesions
  severity of lesions: reduce the severity of lesions
Vascular tissue; Table 1
  Anti-Aggregant: +
  Decreased Formation of Clots: 0
  Decreased Immune-Induced Lesions: +
  Decreased Peroxidation: +
  Decreases Serum Cholesterol: +
  Inhibition of Cholesterol Migration: 0
  Platelet Activity: 0
  Prostaglandin Synthesis: +
  Speeding of Wound Healing: 0
[1]
  immune-triggered endothelial damage / immune-induced lesions: preventative effect on immune-induced lesions; also recorded: protective effect
platelets
  anti-aggregant activity: mild anti-aggregant effect
[2]; supplementation in vitamin E deficient animals
  serum and liver cholesterol levels: decrease serum and liver cholesterol levels in a dose- and time-dependent manner

## aspirin [Aspirin++ Vitamin−]
[3]; Men
  All Deaths No.: 65
  Ischemic Heart Disease No.: 10
  Myocardial Infarction No.: 7
  Other Heart Disease No.: 7
  Stroke No.: 7
  Total Cardiovascular Deaths No.: 27
  All Deaths RR: 1.35
  Ischemic Heart Disease RR: 1.37
  Myocardial Infarction RR: 0.91
  Other Heart Disease RR: 1.57
  Stroke RR: 1.53
  Total Cardiovascular Deaths RR: 1.09
[3]; Women
  All Deaths No.: 77
  Ischemic Heart Disease No.: 14
  Myocardial Infarction No.: 10
  Other Heart Disease No.: 12
  Stroke No.: 9
  Total Cardiovascular Deaths No.: 45
  All Deaths RR: 1.36
  Ischemic Heart Disease RR: 1.50
  Myocardial Infarction RR: 1.25
  Other Heart Disease RR: 1.41
  Stroke RR: 1.58
  Total Cardiovascular Deaths RR: 1.48

## [Zn] [Zinc]
Vascular tissue; Table 2
  Anti-Aggregant: 0
  Decreased Formation of Clots: 0
  Decreased Immune-Induced Lesions: 0
  Decreased Peroxidation: 0
  Decreases Serum Cholesterol: +
  Inhibition of Cholesterol Migration: 0
  Platelet Activity: 0
  Prostaglandin Synthesis: 0
  Speeding of Wound Healing: 0
[4]
  incidence and severity of vascular lesions / atherosclerosis: reduced incidence of atherosclerosis in rats; also recorded: greatly reduced

## [Cr] [Chromium]
Vascular tissue; Table 2
  Anti-Aggregant: 0
  Decreased Formation of Clots: 0
  Decreased Immune-Induced Lesions: 0
  Decreased Peroxidation: 0
  Decreases Serum Cholesterol: +
  Inhibition of Cholesterol Migration: 0
  Platelet Activity: 0
  Prostaglandin Synthesis: 0
  Speeding of Wound Healing: 0

## Cc1ncc(CO)c(CO)c1O.Cl [Vitamin B6]
Vascular tissue; Table 1
  Anti-Aggregant: 0
  Decreased Formation of Clots: 0
  Decreased Immune-Induced Lesions: 0
  Decreased Peroxidation: 0
  Decreases Serum Cholesterol: +
  Inhibition of Cholesterol Migration: 0
  Platelet Activity: 0
  Prostaglandin Synthesis: 0
  Speeding of Wound Healing: 0

## aspirin [Aspirin+ Vitamin−]
[3]; Men
  All Deaths No.: 45
  Ischemic Heart Disease No.: 8
  Myocardial Infarction No.: 7
  Other Heart Disease No.: 6
  Stroke No.: 2
  Total Cardiovascular Deaths No.: 24
  All Deaths RR: 1.00
  Ischemic Heart Disease RR: 1.40
  Myocardial Infarction RR: 0.88
  Other Heart Disease RR: 1.52
  Stroke RR: 0.50
  Total Cardiovascular Deaths RR: 1.09
[3]; Women
  All Deaths No.: 47
  Ischemic Heart Disease No.: 9
  Myocardial Infarction No.: 4
  Other Heart Disease No.: 6
  Stroke No.: 4
  Total Cardiovascular Deaths No.: 26
  All Deaths RR: 0.82
  Ischemic Heart Disease RR: 1.06
  Myocardial Infarction RR: 0.49
  Other Heart Disease RR: 0.81
  Stroke RR: 0.68
  Total Cardiovascular Deaths RR: 0.91

## O=C(O)c1cccnc1 [Niacin, Niacin (nictotinic acid)]
[5]
  undesirable effects of supplements: skin flush and dizziness
Vascular tissue; Table 1
  Anti-Aggregant: 0
  Decreased Formation of Clots: 0
  Decreased Immune-Induced Lesions: 0
  Decreased Peroxidation: 0
  Decreases Serum Cholesterol: +
  Inhibition of Cholesterol Migration: 0
  Platelet Activity: 0
  Prostaglandin Synthesis: +
  Speeding of Wound Healing: 0
[2]
  blood serum levels of cholesterol and triglycerides: reduce the blood serum levels of cholesterol and triglycerides
[2]; listed as niacin
  blood serum levels of cholesterol and triglycerides: reduced

## CC(=O)Oc1ccccc1C(=O)O [Aspirin, aspirin]
Vascular tissue; Table 1
  Anti-Aggregant: +
  Decreased Formation of Clots: +
  Decreased Immune-Induced Lesions: 0
  Decreased Peroxidation: 0
  Decreases Serum Cholesterol: 0
  Inhibition of Cholesterol Migration: +
  Platelet Activity: −
  Prostaglandin Synthesis: −
  Speeding of Wound Healing: −
platelets; through platelet activity
  tendency of blood clot formation: reduces the tendency of blood clot formation
[6]
  platelet prostaglandin function: irreversibly block platelet prostaglandin function
  prostaglandin activity in the vascular wall: reversibly decreases prostaglandin activity in the vascular wall

## Vitamin A
Vascular tissue; Table 1
  Anti-Aggregant: +
  Decreased Formation of Clots: 0
  Decreased Immune-Induced Lesions: 0
  Decreased Peroxidation: 0
  Decreases Serum Cholesterol: −
  Inhibition of Cholesterol Migration: 0
  Platelet Activity: 0
  Prostaglandin Synthesis: 0
  Speeding of Wound Healing: +
[1]
  immune-triggered endothelial damage / immune-induced lesions: preventative effect on immune-induced lesions
platelets
  anti-aggregant activity: mild anti-aggregant activity
[7]
  vascular wall wound healing / arterial healing: improve arterial healing; also recorded: speeds vascular wall wound healing
[2]; at higher doses
  serum cholesterol levels: net increase in serum cholesterol levels

## [Mg+2] [Magnesium]
Vascular tissue; Table 2
  Anti-Aggregant: 0
  Decreased Formation of Clots: 0
  Decreased Immune-Induced Lesions: 0
  Decreased Peroxidation: 0
  Decreases Serum Cholesterol: +
  Inhibition of Cholesterol Migration: 0
  Platelet Activity: +
  Prostaglandin Synthesis: 0
  Speeding of Wound Healing: +

## O=C1O[C@H]([C@@H](O)CO)C(O)=C1O [Vitamin C]
Vascular tissue; Table 1
  Anti-Aggregant: 0
  Decreased Formation of Clots: 0
  Decreased Immune-Induced Lesions: 0
  Decreased Peroxidation: 0
  Decreases Serum Cholesterol: +
  Inhibition of Cholesterol Migration: 0
  Platelet Activity: 0
  Prostaglandin Synthesis: +
  Speeding of Wound Healing: 0
[6]
  prostaglandin activity in the vascular wall: increases the level of activity of prostaglandins in the vascular wall
[6]; listed as vitamin C
  prostaglandin activity in the vascular wall: increased
